pIC50: −log10 of the molar value.

The target in one experiment is T1, human V1a receptor (Homo sapiens, UniProt P37288).
T1 construct: expressed in transfected cells; host or cells: CHO K1 (ATCC), constitutively expressing a modified aequorin
Nature of the experiment: Cellular in vitro test for determination of the vasopressin receptor activity (aequorin luminescence, CHO cells), human V1a. Type of experiment: cell-based. The conditions noted are these: cell line transfected with the human V1a receptor, antagonism of [Arg8]-vasopressin, read-out: IC50 hV1a. The source says:
(§1) B-1. Cellular In Vitro Test for Determination of the Vasopressin Receptor Activity
(§2) The identification of agonists and antagonists of the V1a- and V2-vasopressin receptors in man and the rat and the quantification of the activity of the compounds according to the invention are effected by means of recombinant cell lines. These cells are originally derived from the ovarian epithelial cells of the hamster (Chinese Hamster Ovary, CHO K1, ATCC: American Type Culture Collection, Manassas, Va. 20108, USA). The test cell lines constitutively express a modified form of the calcium-sensitive photoprotein aequorin, which after reconstitution with the cofactor coelenterazine emits light on an increase in the free calcium concentrations [Rizzuto R, Simpson A W, Brini M, Pozzan T, Nature 358, 325-327 (1992)]. In addition, the cells are stably transfected with human or rat V1a- or V2 receptors. In the case of the Gs-coupled V2 receptors, the cells are stably transfected with a further gene which codes for the promiscuous Gα16-Protein [Amatruda T T, Steele D A, Slepak V Z, Simon M I, Proceedings of the National Academy of Science USA 88, 5587-5591 (1991)]. The resulting vasopressin receptor test cells react to stimulation of the recombinantly expressed vasopressin receptors with an intracellular release of calcium ions, which can be quantified by the resulting aequorin luminescence with a suitable luminometer [Milligan G, Marshall F, Rees S, Trends in Pharmacological Sciences 17, 235-237 (1996)].
(§3) On the day before the text, the cells are plated out in culture medium (DMEM, 10% FCS, 2 mM glutamine, 10 mM HEPES) in 384-well microtitre plates and kept in a cell incubator (96% atmospheric humidity, 5% v/v CO2, 37° C.). On the test day, the culture medium is replaced by a Tyrode solution (140 mM NaCl, 5 mM KCl, 1 mM MgCl2, 2 mM CaCl2, 20 mM glucose, 20 mM HEPES) which in addition contains the cofactor coelenterazine (50 μM), and the microtitre plate is then incubated for a further 3-4 hours. The test substances in various concentrations are placed beforehand in the wells of the microtitre plate for 10 to 20 minutes, before the agonist [Arg^8]-vasopressin is added and the resulting light signal immediately measured in the luminometer. The IC50 values are calculated by means of the computer program GraphPad PRISM (Version 3.02).

The target of the next experiment is T2, human V2 receptor (Homo sapiens, UniProt P30518).
T2 construct: expressed in transfected cells; host or cells: CHO K1 (ATCC), constitutively expressing a modified aequorin and stably co-transfected with promiscuous G-alpha-16
T2 sequence (P30518 whole entry): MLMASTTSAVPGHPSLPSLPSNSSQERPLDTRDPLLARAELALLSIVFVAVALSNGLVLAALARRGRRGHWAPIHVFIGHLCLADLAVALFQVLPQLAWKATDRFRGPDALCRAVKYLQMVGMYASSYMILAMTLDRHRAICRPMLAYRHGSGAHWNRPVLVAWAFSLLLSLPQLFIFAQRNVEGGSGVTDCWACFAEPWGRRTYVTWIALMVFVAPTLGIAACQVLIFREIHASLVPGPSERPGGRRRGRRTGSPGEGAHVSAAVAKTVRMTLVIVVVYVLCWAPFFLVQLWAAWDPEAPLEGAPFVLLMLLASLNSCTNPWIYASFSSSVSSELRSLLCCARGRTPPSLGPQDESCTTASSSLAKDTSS
Nature of the experiment: Cellular in vitro test for determination of the vasopressin receptor activity (aequorin luminescence, CHO cells), human V2. It counts as cell-based. Conditions: cell line transfected with the human V2 receptor, antagonism of [Arg8]-vasopressin, read-out: IC50 hV2.
Excerpt: as §1, §2, §3

T1 sequence (P37288 whole entry): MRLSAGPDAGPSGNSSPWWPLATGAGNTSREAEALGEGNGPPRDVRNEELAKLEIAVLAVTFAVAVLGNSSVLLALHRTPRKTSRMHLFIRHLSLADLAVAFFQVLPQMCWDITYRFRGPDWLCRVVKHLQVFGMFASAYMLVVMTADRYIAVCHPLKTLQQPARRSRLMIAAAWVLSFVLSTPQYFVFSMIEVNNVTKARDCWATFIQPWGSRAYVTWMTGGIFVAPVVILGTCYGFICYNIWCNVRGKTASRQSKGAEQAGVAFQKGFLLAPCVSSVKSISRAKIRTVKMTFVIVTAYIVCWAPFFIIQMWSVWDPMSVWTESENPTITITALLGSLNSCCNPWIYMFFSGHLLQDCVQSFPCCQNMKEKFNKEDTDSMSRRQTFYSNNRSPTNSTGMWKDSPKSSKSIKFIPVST

On to `CC(C)(NC(=O)Cn1nc(-c2ccc(Cl)cc2)n(CCN2CCOCC2)c1=O)c1cccc(C(F)(F)F)c1` [Example 462, 2-[3-(4-chlorophenyl)-4-(2-morpholin-4-ylethyl)-5-oxo-4,5-dihydro-1H-1,2,4-triazol-1-yl]-N-{1-methyl-1-[3-(trifluoromethyl)phenyl]ethyl}-acetamide], for which the pIC50 on human V1a receptor is 6.43; at human V2 receptor, 7.34.
The corresponding values for `C[C@H](NC(=O)Cn1nc(-c2ccc(Cl)s2)n(Cc2ccccc2F)c1=O)c1cccc(C(F)(F)F)c1` [Example 251] are 7.43 and 7.89.
Take `CC(C)(CNC(=O)Cn1nc(-c2ccc(Cl)cc2)n(C2CC2)c1=O)c1ccccc1C(F)(F)F` [Example 313]: the values for the negative logarithm of the IC50 (pIC50) on human V1a receptor and at human V2 receptor were 8.52 and 5.99, respectively.
On to `CC(C)(NC(=O)Cn1cc(-c2ccc(Cl)cc2)n(CC(O)C(F)(F)F)c1=O)c1cccc(C(F)(F)F)c1` (single isomer, unassigned) [Example 501, 2-[4-(4-chlorophenyl)-2-oxo-3-(3,3,3-trifluoro-2-hydroxypropyl)-2,3-dihydro-1H-imidazol-1-yl]-N-{1-methyl-1-[3-(trifluoromethyl)phenyl]ethyl}-acetamide], for which the figures for the pIC50 at human V1a receptor and at human V2 receptor were 7.92 and 8.52, respectively.
Regarding `CC(C)Cn1c(-c2ccc(Cl)s2)nn(CC(=O)NC(C)(C)c2cccc(C(F)(F)F)c2)c1=O` [Example 84], the pIC50 at human V1a receptor is 6.49; at human V2 receptor, 8.10.
Turning to `COc1ccc(Cn2c(-c3ccc(Cl)cc3)nn(CC(=O)NC(C)(C)c3cccc(C(F)(F)F)c3)c2=O)cc1` [Example 29], the pIC50 was 6.77 on human V1a receptor and 8.05 at human V2 receptor.
The like results for `CCC(=O)Cn1c(-c2ccc(Cl)cc2)nn(CC(=O)NC(C)(C)c2cccc(C(F)(F)F)c2)c1=O` [Example 443, 2-[3-(4-chlorophenyl)-5-oxo-4-(2-oxobutyl)-4,5-dihydro-1H-1,2,4-triazol-1-yl]-N-1-methyl-1-[3-(trifluoromethyl)phenyl]ethyl-acetamide] were, in that order, 7.03 and 7.64.
As to `CC(C)(NC(=O)Cn1nc(-c2ccc(F)c(F)c2)n(Cc2ccccc2F)c1=O)c1cccc(C(F)(F)F)c1` [Example 221], the pIC50 on human V1a receptor is 6.78; at human V2 receptor, 7.52.
Take `CC(C)(NC(=O)Cn1nc(-c2ccc(Cl)cc2)n(CC(=O)O)c1=O)c1cccc(C(F)(F)F)c1` [Example 467, 3-(4-chlorophenyl)-1-[2-(1-methyl-1-[3-(trifluoromethyl)phenyl]ethylamino)-2-oxoethyl]-5-oxo-1,5-dihydro-4H-1,2,4-triazol-4-yl-acetic acid]: the pIC50 was 6.36 on human V1a receptor and 7.59 on human V2 receptor.
For the compound `O=C(Cn1nc(-c2ccc(Cl)cc2)n(CC(O)C(F)(F)F)c1=O)N[C@@H]1C[C@@H]1c1cccc(C(F)(F)F)c1` (mixture of isomers) [Example 357, 2-[3-(4-chlorophenyl)-5-oxo-4-(3,3,3-trifluoro-2-hydroxypropyl)-4,5-dihydro-1H-1,2,4-triazol-1-yl]-N-{(1RS,2RS)-[2-(3-trifluoromethyl-phenyl)cyclopropyl]}-acetamide], the negative logarithm of the IC50 (pIC50) on human V1a receptor is 6.47; on human V2 receptor, 8.30.
Consider `Cc1cc(Cl)ccc1-c1nn(CC(=O)NCCc2ccccc2C(F)(F)F)c(=O)n1Cc1ccccc1F` [Example 241], for which the pIC50 at human V1a receptor was 7.12; on human V2 receptor it was 6.57.
Take `COCCn1c(-c2ccc(Cl)cc2)nn(CC(=O)NC(C(=O)N(C)C)c2cccc(C(F)(F)F)c2)c1=O` (stereo not drawn) [Example 348]: the pIC50 is 8.40 on human V1a receptor and 6.66 on human V2 receptor.
The like results for `COC(=O)[C@@H](Cc1ccccc1C(F)(F)F)NC(=O)Cn1nc(-c2ccc(Cl)cc2)n(C2CC2)c1=O` [Example 321] were, in that order, 7.30 and 6.29.
Take `CS(=O)(=O)c1ccccc1CNC(=O)Cn1nc(-c2ccc(Cl)cc2)n(Cc2ccccc2F)c1=O` [Example 482, 2-[3-(4-chlorophenyl)-4-(2-fluorobenzyl)-5-oxo-4,5-dihydro-1H-1,2,4-triazol-1-yl]-N-[2-(methylsulphonyl)benzyl]-acetamide]: the pIC50 at human V1a receptor is 8.05; on human V2 receptor it was 6.60.
On to `CC(C)Cn1c(-c2ccc(Cl)s2)nn(CC(=O)NCc2ccccc2C(F)(F)F)c1=O` [Example 63], for which the pIC50 on human V1a receptor is 7.42; on human V2 receptor, less than 5.00.
In the case of `CC(C)Cn1c(-c2ccccc2-c2ccccc2)nn(CC(=O)NCc2cccc(C(F)(F)F)c2)c1=O` [Example 151], the negative logarithm of the IC50 (pIC50) on human V1a receptor is 5.47; on human V2 receptor, 6.03.
On to `CC(C)(NC(=O)Cn1nc(-c2ccc(Cl)cc2)n(CC(O)C(F)(F)F)c1=O)c1cccc(C(F)(F)F)c1` (single isomer, unassigned) [Example 451, 2-[3-(4-chlorophenyl)-5-oxo-4-(3,3,3-trifluoro-2-hydroxypropyl)-4,5-dihydro-1H-1,2,4-triazol-1-yl]-N-{1-methyl-1-[3-(trifluoromethyl)phenyl]ethyl}-acetamide], for which the negative-log IC50 (pIC50) at human V1a receptor is 7.92; at human V2 receptor, 8.70.
`C#CCn1c(-c2ccc(Cl)cc2)nn(CC(=O)NCCc2ccccc2C(F)(F)F)c1=O` [Example 421]: the negative-log IC50 (pIC50) at human V1a receptor is 7.49; on human V2 receptor, 7.06.
The corresponding values for `O=C(Cn1nc(-c2ccc(Cl)cc2)n(Cc2ccc(F)cc2)c1=O)NCc1cccc(C(F)(F)F)c1` [Example 143] are 6.02 and 8.22.
Turning to `CC(C(=O)NC(C)(C)c1cccc(C(F)(F)F)c1)n1cc(-c2ccc(Cl)cc2)n(C2CC2)c1=O` (stereo not drawn) [Example 214], the pIC50 was 5.20 on human V1a receptor and 6.74 on human V2 receptor.
For the compound `CN(C)C(CNC(=O)Cn1nc(-c2ccc(Cl)cc2)n(Cc2ccccc2F)c1=O)c1ccccc1Cl` (stereo not drawn) [Example 265], the negative logarithm of the IC50 (pIC50) at human V1a receptor is 7.55; at human V2 receptor, 6.13.
Take `CC(NC(=O)Cn1nc(-c2ccc(Cl)cc2)n(C2CC2)c1=O)c1ccccc1C(F)(F)F` (stereo not drawn) [Example 28]: the values for the negative logarithm of the IC50 (pIC50) at human V1a receptor and at human V2 receptor were 7.52 and 6.74, respectively.
Consider `O=C(Cn1nc(-c2ccc(Cl)cc2)n(CC(O)C(F)(F)F)c1=O)NC(C(=O)N1CCOCC1)c1cccc(C(F)(F)F)c1` (stereo not drawn) [Example 511, 2-[3-(4-chlorophenyl)-5-oxo-4-(3,3,3-trifluoro-2-hydroxypropyl)-4,5-dihydro-1H-1,2,4-triazol-1-yl]-N-{2-morpholin-4-yl-2-oxo-1-[3-(trifluoromethyl)phenyl]ethyl}-acetamide], for which the pIC50 on human V1a receptor is 8.40; at human V2 receptor it was 7.96.
The like results for `CC(C)(NC(=O)Cn1nc(-c2ccc(Cl)cc2)n(C2CC2)c1=O)c1cccc(C(F)(F)F)c1` [Example 75, 2-[3-(4-chlorophenyl)-4-cyclopropyl-5-oxo-4,5-dihydro-1H-1,2,4-triazol-1-yl]-N-{1-methyl-1-[3-(trifluoromethyl)phenyl]ethyl}acetamide] were, in that order, 6.41 and 7.59.
The like results for `CCn1c(-c2ccc(Cl)cc2)cn(CC(=O)NC(C)c2cccc(C(F)(F)F)c2)c1=O` (stereo not drawn) [Example 209] were, in that order, 6.85 and 6.59.
Turning to `C/C=C/n1c(-c2ccc(Cl)cc2)nn(CC(=O)NCc2cccc(C(F)(F)F)c2)c1=O` [Example 457, 2-{3-(4-chlorophenyl)-5-oxo-4-[(1E)-prop-1-en-1-yl]-4,5-dihydro-1H-1,2,4-triazol-1-yl}-N-[3-(trifluoromethyl)benzyl]-acetamide], the pIC50 at human V1a receptor is 7.37; on human V2 receptor, 7.54.
Take `CCn1c(-c2ccc(Cl)cc2)nn(CC(=O)NCc2ccccc2C(F)(F)F)c1=O` [Example 101]: the figures for the negative-log IC50 (pIC50) on human V1a receptor and on human V2 receptor were 7.03 and 5.96, respectively.
For the compound `CC(C)(NC(=O)Cn1nc(-c2ccc(Cl)cc2)n(CC(F)(F)F)c1=O)c1cccc(C(F)(F)F)c1` [Example 386], the negative logarithm of the IC50 (pIC50) at human V1a receptor is 6.21; on human V2 receptor, 7.64.
The corresponding values for `C=C(C)Cn1c(-c2ccc(Cl)cc2)nn(CC(=O)NC(C)(C)c2cccc(C(F)(F)F)c2)c1=O` [Example 423, 2-[3-(4-chlorophenyl)-4-(2-methylprop-2-en-1-yl)-5-oxo-4,5-dihydro-1H-1,2,4-triazol-1-yl]-N-1-methyl-1-[3-(trifluoromethyl)phenyl]ethyl-acetamide] are 6.80 and 7.82.
Consider `O=C(Cn1nc(-c2ccc(Cl)cc2)n(CC(O)C(F)(F)F)c1=O)NCC(F)(F)c1cccc(C(F)(F)F)c1` (stereo not drawn) [Example 364], for which the negative logarithm of the IC50 (pIC50) on human V1a receptor was 7.66; at human V2 receptor, 8.10.

In general, pIC50 refers to the IC50 on a negative log10 scale, so that one unit is a factor of ten.

The values are drawn from US8084481B2, “Substituted arylimidazolone and triazolone as inhibitors of vasopressin receptors” (Bayer Pharma Aktiengesellschaft, priority 2006, dated 2011).
